Assay results reported in PubChem BioAssay (NCI).
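Step 1: Grow cells in 96-well plates. Step 2: Expose to compound for 48 hours at 5 concentrations. Step 3: Interpolate endpoints linearly; if unreached, use highest concentration. TGI is the concentration that stops growth completely.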

Columns and labels:
Experiment in all cases: NCI tumour cell line growth inhibition, 48 h
NCI/ADR-RES ovarian = test system: NCI/ADR-RES ovarian
IGROV1 ovarian = test system: IGROV1 ovarian
OVCAR-8 ovarian = test system: OVCAR-8 ovarian
MDA-MB-435 = test system: MDA-MB-435
CCRF-CEM leukemia = test system: CCRF-CEM leukemia
COLO 205 colon = test system: COLO 205 colon
HCT-15 colon = test system: HCT-15 colon
NCI-H226 lung = test system: NCI-H226 lung
EKVX NSCLC = test system: EKVX NSCLC
UACC-62 melanoma = test system: UACC-62 melanoma
OVCAR-5 ovarian = test system: OVCAR-5 ovarian
CAKI-1 renal = test system: CAKI-1 renal
SF-539 CNS = test system: SF-539 CNS
KM12 colon = test system: KM12 colon
ACHN renal = test system: ACHN renal
MCF7 breast = test system: MCF7 breast
HS 578T breast = test system: HS 578T breast
LOX IMVI melanoma = test system: LOX IMVI melanoma
SK-MEL-28 melanoma = test system: SK-MEL-28 melanoma
DU-145 prostate = test system: DU-145 prostate

| Structure (SMILES) | TGI (NCI/ADR-RES ovarian) | TGI (IGROV1 ovarian) | TGI (OVCAR-8 ovarian) | TGI (MDA-MB-435) | TGI (CCRF-CEM leukemia) | TGI (COLO 205 colon) | TGI (HCT-15 colon) | TGI (NCI-H226 lung) | TGI (EKVX NSCLC) | TGI (UACC-62 melanoma) | TGI (OVCAR-5 ovarian) | TGI (CAKI-1 renal) | TGI (SF-539 CNS) | TGI (KM12 colon) | TGI (ACHN renal) | TGI (MCF7 breast) | TGI (HS 578T breast) | TGI (LOX IMVI melanoma) | TGI (SK-MEL-28 melanoma) | TGI (DU-145 prostate) |
| --- | --- | --- | --- | --- | --- | --- | --- | --- | --- | --- | --- | --- | --- | --- | --- | --- | --- | --- | --- | --- |
| O=[N+]([O-])/C(Cl)=C(/C(Cl)=C(Cl)Cl)N1CCOCC1 | 14.9 µM | 3.88 µM | 11.9 µM | 7.64 µM | 7.23 µM | 5.45 µM | 3.24 µM | 40.4 µM | 21.6 µM | 5.62 µM | 22 µM | 12.7 µM | 9.05 µM | 13.1 µM | 20.5 µM | 8.25 µM | 14.9 µM | 17.3 µM | 34.3 µM | 26.9 µM |
| CCc1n[nH]c(=O)n1/N=C(\C)c1ccccc1 | > 100 µM | > 100 µM | > 100 µM | > 100 µM | > 100 µM | > 100 µM | > 100 µM | > 100 µM | > 100 µM | > 100 µM | > 100 µM | > 100 µM | > 100 µM | > 100 µM | > 100 µM | > 100 µM | > 100 µM | > 100 µM | > 100 µM | > 100 µM |
| O=[N+]1[C@H](c2ccccc2)[C@H](c2ccccc2)N1[O-] | 35.5 µM | 26.8 µM | 32.7 µM | 34.3 µM | 36.3 µM | 37.9 µM | 24.7 µM | 38.9 µM | 33.8 µM | 32.3 µM | 35.8 µM | 19.7 µM | 32.7 µM | 45.3 µM | 32.3 µM | 30.5 µM | > 100 µM | 29.2 µM | 30.5 µM | 30.1 µM |
| CC(C)(C)OC(=O)CCCCCNC(=O)CCCCCNC(=O)CCC(CN(CC(=O)OCc1ccccc1)CC(=O)OCc1ccccc1)N(CC(=O)OCc1ccccc1)CC(=O)OCc1ccccc1 (stereo not given) | > 100 µM | > 100 µM | > 100 µM | > 100 µM | > 100 µM | > 100 µM | > 100 µM | > 100 µM | > 100 µM | > 100 µM | > 100 µM | > 100 µM | > 100 µM | > 100 µM | > 100 µM | > 100 µM | > 100 µM | > 100 µM | > 100 µM | > 100 µM |
| COC(=O)C(=O)Nc1cc2c3c(c1)Oc1cccc4c1C3(C)c1c(cccc1O2)O4 | > 100 µM | > 100 µM | > 100 µM | > 100 µM | 8.7 µM | > 31.6 µM | > 100 µM | 44.8 µM | > 100 µM | > 100 µM | > 100 µM | > 100 µM | > 76.6 µM | > 100 µM | > 100 µM | > 100 µM | > 100 µM | > 100 µM | > 100 µM | > 66.3 µM |
| O=C(Nc1ccccc1)OCCN=C1c2ccccc2CCc2ccccc21 | 72.4 µM | 58.2 µM | > 100 µM | 43.6 µM | 55.7 µM | 33.1 µM | 48.2 µM | 55 µM | > 100 µM | 26.7 µM | 63.5 µM | 88 µM | 34.8 µM | 33.1 µM | 70.1 µM | 57.8 µM | 51.5 µM | 49.4 µM | 28.7 µM | 91.3 µM |
| CC(C)(C)OC(=O)N1CCCC1C(=O)NC(c1ccccc1)c1ccccc1 (stereo not given) | > 100 µM | > 100 µM | > 100 µM | > 100 µM | > 100 µM | > 100 µM | > 100 µM | > 100 µM | > 100 µM | > 100 µM | > 100 µM | > 100 µM | > 100 µM | > 100 µM | > 100 µM | > 100 µM | > 100 µM | > 100 µM | > 100 µM | > 100 µM |
| O=C1Cc2cn[nH]c2-c2ccccc2N1 | > 100 µM | > 100 µM | > 100 µM | 59.7 µM | 53.1 µM | > 64 µM | > 63.3 µM | > 100 µM | 95.4 µM | 63.5 µM | > 57.5 µM | > 35.2 µM | > 100 µM | > 67.3 µM | > 55.7 µM | > 100 µM | > 100 µM | 33.6 µM | > 100 µM | > 100 µM |
| Cc1[nH]c(-c2ccccc2)c2nc(N(C)C)oc(=O)c12 | > 100 µM | > 100 µM | > 100 µM | > 100 µM | > 100 µM | > 100 µM | > 100 µM | > 100 µM | > 100 µM | > 100 µM | > 100 µM | > 100 µM | > 100 µM | > 100 µM | > 100 µM | > 100 µM | > 100 µM | > 100 µM | > 100 µM | > 100 µM |
